One experiment concerns the target ΔCRD Nluc-SMO (Mus musculus, UniProt P56726, D477G/E522K). The experiment is described as follows: NanoBRET saturation binding, live cells. The format is cell-based. (In general: In BRET a luciferase serves as donor, and the signal depends on an acceptor being close.)
The target in a further experiment is Nluc-SMO (Mus musculus, UniProt P56726, D477G/E522K). The experiment is described as follows: NanoBRET saturation binding, live cells. Type of experiment: cell-based.

Molecules are shown by their SMILES.

Chain of ΔCRD Nluc-SMO (P56726 185-793 D477G/E522K): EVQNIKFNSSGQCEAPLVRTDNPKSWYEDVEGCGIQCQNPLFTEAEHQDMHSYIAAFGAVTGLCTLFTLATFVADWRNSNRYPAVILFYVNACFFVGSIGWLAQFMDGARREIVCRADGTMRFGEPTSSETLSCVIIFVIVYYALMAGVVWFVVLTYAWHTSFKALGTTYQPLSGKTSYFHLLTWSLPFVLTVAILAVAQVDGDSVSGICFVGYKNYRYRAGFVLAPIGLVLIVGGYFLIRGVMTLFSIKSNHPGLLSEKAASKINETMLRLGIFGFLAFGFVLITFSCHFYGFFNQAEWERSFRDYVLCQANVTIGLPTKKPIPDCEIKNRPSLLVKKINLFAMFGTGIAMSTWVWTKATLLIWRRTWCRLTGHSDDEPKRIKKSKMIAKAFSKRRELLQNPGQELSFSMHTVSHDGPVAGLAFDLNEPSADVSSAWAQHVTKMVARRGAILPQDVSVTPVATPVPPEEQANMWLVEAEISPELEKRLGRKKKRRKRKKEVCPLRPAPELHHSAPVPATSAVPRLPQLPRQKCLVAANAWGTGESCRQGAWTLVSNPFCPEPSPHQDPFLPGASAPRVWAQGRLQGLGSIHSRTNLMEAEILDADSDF
Chain of Nluc-SMO (P56726 33-793 D477G/E522K): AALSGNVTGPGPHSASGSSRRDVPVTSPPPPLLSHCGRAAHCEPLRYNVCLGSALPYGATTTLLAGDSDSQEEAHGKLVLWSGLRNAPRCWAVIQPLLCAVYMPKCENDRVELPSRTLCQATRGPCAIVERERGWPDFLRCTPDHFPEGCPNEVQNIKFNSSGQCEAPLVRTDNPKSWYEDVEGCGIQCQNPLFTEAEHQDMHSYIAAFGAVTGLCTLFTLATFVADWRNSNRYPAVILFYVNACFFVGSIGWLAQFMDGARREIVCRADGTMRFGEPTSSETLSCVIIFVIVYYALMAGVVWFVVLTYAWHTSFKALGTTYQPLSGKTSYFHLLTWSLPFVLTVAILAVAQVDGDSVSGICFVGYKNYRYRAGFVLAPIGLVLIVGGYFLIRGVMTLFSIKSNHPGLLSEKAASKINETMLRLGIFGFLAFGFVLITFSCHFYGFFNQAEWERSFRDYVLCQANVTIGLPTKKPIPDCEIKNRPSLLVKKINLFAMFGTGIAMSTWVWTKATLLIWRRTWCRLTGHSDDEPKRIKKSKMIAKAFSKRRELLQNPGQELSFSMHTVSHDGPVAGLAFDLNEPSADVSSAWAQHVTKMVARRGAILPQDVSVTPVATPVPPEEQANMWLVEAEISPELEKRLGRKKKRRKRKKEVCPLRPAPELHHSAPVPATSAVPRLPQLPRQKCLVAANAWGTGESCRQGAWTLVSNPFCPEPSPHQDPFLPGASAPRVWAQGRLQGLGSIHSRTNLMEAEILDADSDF

With `CC1=CC(C)=[N+]2C1=Cc1ccc(CCC(=O)NCCCCCC(=O)NCCN3C[C@@H](C)C[C@H]4O[C@]5(CC[C@@H]6C(=C5C)C[C@H]5[C@H]6CC=C6C[C@@H](O)CC[C@@]65C)[C@H](C)[C@@H]43)n1[B-]2(F)F` [BODIPY-cyclopamine], the results for the Kd on ΔCRD Nluc-SMO and on Nluc-SMO were 450 ± 38.7 nM and 666 ± 122 nM, respectively.

A word on the Kd: it is the free concentration of one partner at which half of the binding sites on the other are occupied at equilibrium, for simple one-to-one binding.

The record behind these values is publication doi:10.1101/706028v1 (biorxiv, 2019).
